Results from patent publication US9770421B2, “Uses for idebenone and related benzoquinones in metabolic disorders and other PPAR α/γ related diseases and conditions” (INDANIO BIOSCIENCE INC., priority 2013, dated 2017).
“Also recorded” adds a separate entry of the source.

Key:
3T3-L1 cells = assay: Murine 3T3-L1 adipocyte differentiation assay (Oil Red O); format: cell-based; settings: with dexamethasone, isobutylmethylxanthine and insulin; Oil Red O staining
Procedure: The cell line was originally obtained from ATCC and 3T3-L1 cells were maintained in the fibroblasts stage in DMEM (Gibco: 11995-065), 10% FBS (Gibco: 26140-079) and Pen-Strep solution (Gibco: 15140-122). Cells were grown in 75 cm^2 flasks and sub-cultured just prior to confluence. Medium was removed and washed twice with PBS. For cell differentiation 2 day post-confluent monolayers were incubated for 2 days in DMEM containing: 10% fetal bovine serum (FBS), 100 μg/ml IBMX (from a 500× stock in 0.15 M KOH, prepared fresh), 390 ng/ml dexamethasone (from a 1000× stock in EtOH) and 5 μg/ml insulin (from a 1000× stock in 0.1 M HCl). After 2 days media was replaced with DMEM+ 10% FBS and 5 μg insulin only and cells were maintained for another 2 days. Media was then replaced by DMEM+ 10% FBS for 5-6 days until differentiation was complete. After differentiation media was removed and cells were washed twice with PBS and then fixed in 4% PFA. Lipids were stained with Oil O red.

[1] = test system: diet-induced obese C57BL/6J male mice; assay: Diet-induced-obese (DIO) mouse study; format: in vivo
Procedure: Mouse-based biomedical research was performed by the Jackson Laboratory to test the efficacy of idebenone in a diet-induced-obese (DIO) mouse model and approved by the Institutional Animal Care and Use Committee (IACUC). To test the efficacy of idebenone in a db/db mouse model experiments were performed at the Univerity of Torotno and were approved by the Animal Care Committee at the University of Toronto.
DIO study: Forty four (44) diet-induced obese C57BL/6J male mice (started on high fat diet at the age of 6 weeks) were used at 16 wks of age. The mice were ear notched for identification using the standard mouse ID format. Mice were housed at a density of 3-4 per cage in polycarbonate cages, which were both individually and positively ventilated. Bed-o'Cobs® corn cob bedding was provided and was changed every two weeks or as needed.
The animal room was lighted entirely with artificial fluorescent lighting on controlled 12 hr light/dark cycle (6 a.m. to 6 p.m. light). The normal temperature and relative humidity ranges in the animal rooms were maintained at 22±4° C. and 50±15%, respectively. The animal room was set for 15 air exchanges per hour. Filtered tap water acidified to a pH of 2.5 to 3.1 was provided ad libitum. High fat diet (60 kcal %) was provided ad libitum. Following a 2 week acclimation, 32 mice were chosen based on desired body weight range. Remaining mice were euthanized. Mice were randomized by body weight into four treatment groups (n=8) by body weight and non-fasting blood glucose taken three days prior to the start of dosing. Body weights, non-fasting blood glucose, and insulin were measured before dosing. Dosing occurred for 5 days. Fasting blood glucose and insulin were measured at the end of dosing (mice were fasted overnight on day 5, and insulin and blood glucose was measured on day 6). Mice were euthanized by CO2 euthanasia. An aliquot of whole blood was processed to measure insulin.

hPPARγ = target: T1, hPPARγ (Homo sapiens, UniProt P37231); assay: HEK293 cell culture luciferase reporter assay, hPPARγ
T1 sequence (P37231 188-477 isoform P37231-2): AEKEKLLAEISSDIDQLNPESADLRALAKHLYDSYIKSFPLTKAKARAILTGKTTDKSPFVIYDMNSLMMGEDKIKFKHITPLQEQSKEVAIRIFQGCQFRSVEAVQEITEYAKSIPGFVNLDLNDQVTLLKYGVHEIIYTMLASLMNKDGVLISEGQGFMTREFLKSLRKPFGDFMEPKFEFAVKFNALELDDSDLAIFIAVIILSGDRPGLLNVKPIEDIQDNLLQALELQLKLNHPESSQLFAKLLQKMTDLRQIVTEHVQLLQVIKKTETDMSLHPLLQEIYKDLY

PPARα = target: T2, PPARα (Homo sapiens, UniProt Q07869); assay: PPARα ligand trap zebrafish GFP reporter assay; format: in vivo; set-up: pLT PPARα (aa 178-468) and pLT PPAR γ (aa 188-477) lines; expressed in transfected cells; host or cells: transgenic zebrafish embryos (ligand-trap line); settings: transgenic embryos, 48 hpf
T2 sequence (Q07869 178-468): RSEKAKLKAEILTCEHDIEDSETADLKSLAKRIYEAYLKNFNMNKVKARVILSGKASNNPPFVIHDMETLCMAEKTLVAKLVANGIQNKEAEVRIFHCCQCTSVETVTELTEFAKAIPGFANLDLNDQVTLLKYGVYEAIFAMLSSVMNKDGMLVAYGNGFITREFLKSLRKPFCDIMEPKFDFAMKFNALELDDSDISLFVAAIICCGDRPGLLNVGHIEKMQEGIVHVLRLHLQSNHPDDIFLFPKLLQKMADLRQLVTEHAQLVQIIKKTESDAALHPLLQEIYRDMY
Procedure: Zebrafish were maintained at 28.5° C. on a 14/10 hour light/dark cycle and staged according to hours (h) or days (d) postfertilization. To generate pLT PPARα (aa 178-468) and pLT PPAR γ (aa 188-477) lines, plasmids were pre-digested with I-SceI (0.8 μg DNA, 1 μl I-SceI (New England Biolabs) 2 μl 10×I-SceI buffer, 1 μl BSA) for 20 min at 37° C. Digested DNA was adjusted with 0.1% phenol red. 4.6 nl of DNA solution was injected into the blastomeres of early one-cell stage embryos.
F0 fish were crossed with WT fish to identify germ-line transformed animals, as determined by agonist treatments and GFP expression. F1 progeny showing strong and consistent GFP responses were selected for F2 homozygote production. To avoid reporter GFP silencing of stable transgenic LT lines, homozygous fish showing strong and consistent GFP responses were selected for continued propagation of next generations.
PPARγ ligand trap zebrafish screens were performed under optimized conditions in 96-well format using the ImageXpress Velos Laser Scanning Cytometer. 1 or 2 dpf embryos were heat induced (28→37° C.) for 30 minutes, de-chorionated and then arrayed in 96-well plates (5 per well). […] Embryos were incubated at 28° C. for 14 h, anesthetized with Tricaine (Sigma, Cat. # A-5040) and then analyzed for GFP fluorescence using the ImageXpress Velos Laser Scanning Cytometer.

[2] = gavage twice daily for 5 days, 50 mpk idebenone, 30 mpk rosiglitazone

COC1=C(OC)C(=O)C(CCCCCCCCCCO)=C(C)C1=O [Idebenone, 2-(10-hydroxydecyl)-5,6-dimethoxy-3-methyl-2,5-cyclohexadiene-1,4-dione]
Lipid accumulation / adipocyte differentiation (3T3-L1 cells): does not stimulate adipocyte differentiation and activity; also recorded: no accumulation of lipid | Insulin resistance (HOMA-IR) ([1]; 50 mpk idebenone twice daily for 5 days): clear improvement | Blood glucose levels [1, 2]: trend towards lowered blood glucose levels; also recorded: lowers | Fasting insulin levels [1, 2]: reduction in fasting insulin levels; also recorded: lowers | EC50 (hPPARγ): 2500 nM | Maximum activation level versus full agonist, PPARγ (hPPARγ; HEK293, full agonist rosiglitazone): significantly lower than those obtained using the full agonists | GFP response of PPARα LT line (PPARα): robust response; also recorded: dual agonists for PPARα and PPARγ
